Results as given in patent US4681895A, “Novel guanidinomethylcyclohexanecarboxylic acid compounds and anti-ulcer drug containing the same” (Kanebo, Ltd., priority 1985, dated 1987).

Assays:
[1] = test system: Male ddY mice; experiment: Test of acute toxity [minimum lethal dose (MLD)]; assay type: in vivo; conditions: oral, mice fasted 17 hours, observed for 7 days
Description: (§1) The same test compounds as used in Experiment 1 were used.
Male ddY mice weighing 20-22 g (4 week old), 5 per group, were fasted for 17 hours and administered orally with each test compound which was suspended in 1% arabic gum aqueous solution.

[2] = test system: peptic ulcers; conditions: disclosed in Japanese Patent First Publications; cited from earlier work
[3] = test system: indomethacin-induced gastric ulcer; experiment: Activity against indomethacin-induced gastric ulcer; assay type: in vivo, Male Sprague-Dawley rats; conditions: Rattus norvegicus; oral, rats, 15 min before indomethacin 30 mg/kg subcutaneously; killed 5 hours after; read-out: ED50, Anti-indomethacin-induced ulcer
Description: as §1
The experiment was carried out by a modified method of that of Okabe et al. [cf. Dig. Dis. Sci., 28, 1034 (1983)].
Male Sprague-Dawley rats weighing 180-200 g (8 week old), 6-8 per group, were fasted for 24 hours and administered orally with each test compound which was suspended in 1% arabic gum aqueous solution. After 15 minutes, indomethacin (in a solution in 3% sodium bicarbonate solution) was given subcutaneously to the rats at a dose of 30 mg/kg. The animals were killed by ether inhalation 5 hours after receiving of indomethacin. The stomach of each rat was removed, inflated by injecting 12 ml of 1% formalin, containing 0.1% pontamine sky blue, and immersed in 1% formalin for 15 minutes. Afterward, the mean ulcer index and inhibitory ratio were calculated by the same method as in Experiment 1, and then ED50 was calculated by dose response curve.

[4] = test system: ethanol-induced gastric ulcer; experiment: Activity against ethanol-induced gastric ulcer; assay type: in vivo, Male Sprague-Dawley rats; conditions: Rattus norvegicus; oral, rats, 30 min before 99.5% ethanol 1 ml orally; killed 1 hour after; read-out: ED50, Anti-ethanol-induced ulcer
Description: as §1
The experiment was carried out according to the method of Robert et al. [cf. Gastroenterology, 77, 433 (1979)].
Male Sprague-Dawley rats weighing 180-200 g (8 week old), 6-8 per group, were fasted for 24 hours and administered orally with each test compound which was suspended in 1% arabic gum aqueous solution. After 30 minutes, 99.5% ethanol (as a necrotizing agent) was given orally to the rats in a volume of 1 ml. The animals were killed by ether inhalation 1 hour after receiving of ethanol. The stomach of each rat was removed, inflated by injecting 12 ml of 1 % formalin, and immersed in 1% formalin for 15 minutes. Afterward, the mean ulcer index and inhibitory ratio were calculated by the same method as in Experiment 1, and then the ED50 was calculated by dose-response curve.

[5] = test system: stress-induced gastric ulcer; experiment: Activity against stress-induced gastric ulcer; assay type: in vivo, Male Sprague-Dawley rats; conditions: Rattus norvegicus; oral, rats, 15 min before stress cage in 23° C. water bath for 17 hours; read-out: ED50, Anti-stress-induced ulcer
Description: The experiment was carried out by a modified method of that of Takagi and Okabe [cf. Jap. J. Pharmacol., 18, 9 (1968)]. Male Sprague-Dawley rats weighing 180-200 g (8 week old), 6-8 per group, were fasted for 24 hours and administered orally with each test compound which was suspended in 1% arabic gum aqueous solution. After 15 minutes, the animals were placed in a stress cage and immerse vertically to the level of the xiphoid process in a water bath kept at 23° C. for 17 hours. The animals were killed by ether inhalation. The stomach of each rat was removed, inflated by injecting 12 ml of 1% formalin, and immersed in 1% formalin for 15 minutes. The stomach was then incised along the greater curvature and examined for lesions in the glandular portion under a dissecting microscope. The length (mm) of a ulcer was totalled on each animal and it was indicated as the ulcer index. The mean ulcer index (m) in each test compound-treated group was calculated. The control animals received the same procedure without administering of test compound and the mean ulcer index (l) was calculated. Inhibitory ratio of test compound is expressed as follows. Inhibitory ratio (%)=(1-m/l)×100 wherein l is mean ulcer index in control group, and m is mean ulcer index in test compound-treated group. The anti-ulcer activity of test compound (ED50) was calculated by dose-response curve.

Row | SMILES | MLD (acute toxicity) [1] | anti-ulcer activity, in words [2] | ED50 [3] | ED50 [4] | ED50 [5]
1 | Cl.N=C(N)NC[C@H]1CC[C@H](C(=O)Nc2ccccc2)CC1 [Y, N-Phenyl-trans-4-guanidinomethylcyclohexanecarboxamide hydrochloride, reference compound] | < 1,000 mg/kg | shows an anti-ulcer activity | 86 mg/kg | 199 mg/kg | 135 mg/kg
2 | CCOC(=O)c1ccccc1NC(=O)[C@H]1CC[C@H](CNC(=N)N)CC1.Cl.O [A, N-(o-Ethoxycarbonylphenyl)-trans-4-guanidinomethylcyclohexanecarboxamide hydrochloride monohydrate] | > 3,000 mg/kg |  | 33 mg/kg | 36 mg/kg | 108 mg/kg
3 | COC(=O)c1ccccc1NC(=O)[C@H]1CC[C@H](CNC(=N)N)CC1.Cl.O [B, N-(o-Methoxycarbonylphenyl)-trans-4-guanidinomethylcyclohexanecarboxamide hydrochloride monohydrate] | > 3,000 mg/kg |  | 40 mg/kg | 42 mg/kg | 118 mg/kg
4 | Cl.N=C(N)NC[C@H]1CC[C@H](C(=O)Oc2ccccc2C(=O)OCc2ccccc2)CC1 [X, Trans-4-guanidinomethylcyclohexanecarboxylic acid o-benzyloxycarbonylphenylester hydrochloride, reference compound] | > 3,000 mg/kg | shows an anti-ulcer activity | 103 mg/kg | 108 mg/kg | 376 mg/kg
5 | Cl.N=C(N)NC[C@H]1CC[C@H](C(=O)Nc2ccccc2C(=O)O)CC1.O [C, N-(o-Carboxyphenyl)-trans-4-guanidinomethylcyclohexanecarboxamide hydrochloride monohydrate] | > 3,000 mg/kg |  | 37 mg/kg | 41 mg/kg | 114 mg/kg
